Measured values published in patent publication US20070026080A1, “Manufacturing process for tigecycline” (Wyeth, priority 2005, published 2007).
Where “and” joins values, the source holds several entries; their conditions need not be identical. Equal values may be shown once.

Assay: Strength and degradation profile of tigecycline 20 mg/mL bulk solutions by reversed phase HPLC (effect of temperature, time, pH, dissolved oxygen; Runs A to O)
Assay type: physicochemical
Conditions: 20 mg/mL
Method: The contents of the sample vials are dissolved in diluent. The sample solution is diluted, if necessary, and chromatographed on a reversed phase column using gradient elution. Impurities are determined by comparing the impurity peak areas in the sample preparation chromatogram to the average area of tigecycline peaks in the standard preparation chromatograms obtained concomitantly.
Chromatographic Column—Length about 15 cm, inside diameter about 4.6 mm, packed with Inertsil ODS2, 5 μm size particles or equivalent.
Detector—Ultraviolet spectrophotometric detector capable of operating at 248 nm with a sensitivity of about 0.5 absorbance units full scale.
The results of additional studies to investigate the effect of processing parameters such as temperature, time, and dissolved oxygen content on the purity profile of tigecycline solutions using the following materials, methods and procedures are presented in Tables A to O.
The experiments were run in plastic glove bags under normal laboratory light conditions. Plastic glove boxes will be used to control the headspace of the beakers. The batch size was 200 mL. • 1. Prepare the glove bag with a mixture of nitrogen and air to achieve an oxygen level in the solution as per the design. • 2. Place the jacketed beaker on the magnetic stirrer. Connect it to the cooler. Set the cooler to the desired set point. • 3. Add 200 mL of SWFI in to the beaker. Allow equilibrating. Measure the temperature and oxygen content. When it reaches the desired condition, add accurately weighed API and mix until dissolved. If necessary use spatula to aid dissolution. For pH adjustments, use 4 mL of either 0.1N NaOH or 0.1N HCl and 196 mL of WFI for manufacture. • 4. After complete dissolution, Transfer about 5.5 mL of Solution in vials and stopper them. These vials will be stoppered at the appropriate headspace conditions. Place the vials in appropriate temperature conditions. • 5. Sample the vials at 1, 4, 8, 10, 12 and 24 hours. Send the samples for analysis. Freeze the 10, 12 and 24 samples at −20° C. for analysis the following day. • 6. Measure pH and record color of the solution at each time point. Results
The 1-hour samples were taken directly from the beakers. Samples for later time points were collected in stoppered vials processed in the atmosphere of the bag in order to simulate the headspace conditions then placed in water baths or refrigerator to maintain there respective temperature conditions. This was done to maintain safety in the lab. Disposable plastic glove bags require constant flow of a mixture of nitrogen and air to maintain headspace oxygen level that will result in the desired dissolved oxygen (DO) content in the sample. The pH of samples was measured at each sample points.
Strength and degradation profile was analyzed by HPLC as described above. […] Degradation was slightly higher at higher temperature condition.

[1] = Run #A, 2° C., pH 8.2, Oxygen 2.0 mg/L, hours 1,4,8,10,12,24 at r6-r11
[2] = Run #A, 2° C., pH 8.2, Oxygen 2.0 mg/L, hours 1,4,8,10,12,24 at r17-r22
[3] = Run #B, 8° C., pH 8.2, Oxygen 2.0 mg/L, hours 1,4,8,10,12,24 at r6-r11, 1 hours
[4] = Run #B, 8° C., pH 8.2, Oxygen 2.0 mg/L, hours 1,4,8,10,12,24 at r6-r11, 4 hours
[5] = Run #B, 8° C., pH 8.2, Oxygen 2.0 mg/L, hours 1,4,8,10,12,24 at r6-r11, 8 hours
[6] = Run #B, 8° C., pH 8.2, Oxygen 2.0 mg/L, hours 1,4,8,10,12,24 at r6-r11, 10 hours
[7] = Run #B, 8° C., pH 8.2, Oxygen 2.0 mg/L, hours 1,4,8,10,12,24 at r6-r11, 12 hours
[8] = Run #B, 8° C., pH 8.2, Oxygen 2.0 mg/L, hours 1,4,8,10,12,24 at r6-r11, 24 hours
[9] = Run #B, 8° C., pH 8.2, Oxygen 2.0 mg/L, hours 1,4,8,10,12,24 at r17-r22, 1 hours
[10] = Run #B, 8° C., pH 8.2, Oxygen 2.0 mg/L, hours 1,4,8,10,12,24 at r17-r22, 4 hours
[11] = Run #B, 8° C., pH 8.2, Oxygen 2.0 mg/L, hours 1,4,8,10,12,24 at r17-r22, 8 hours
[12] = Run #B, 8° C., pH 8.2, Oxygen 2.0 mg/L, hours 1,4,8,10,12,24 at r17-r22, 10 hours
[13] = Run #B, 8° C., pH 8.2, Oxygen 2.0 mg/L, hours 1,4,8,10,12,24 at r17-r22, 12 hours
[14] = Run #B, 8° C., pH 8.2, Oxygen 2.0 mg/L, hours 1,4,8,10,12,24 at r17-r22, 24 hours
[15] = Run #C, 2° C., pH 7.7, Oxygen 2 mg/L, hours 1,4,8,10,12,24 at r6-r11
[16] = Run #C, 2° C., pH 7.7, Oxygen 2 mg/L, hours 1,4,8,10,12,24 at r6-r11, 1 h hold time
[17] = Run #C, 2° C., pH 7.7, Oxygen 2 mg/L, hours 1,4,8,10,12,24 at r6-r11, 4 h hold time
[18] = Run #C, 2° C., pH 7.7, Oxygen 2 mg/L, hours 1,4,8,10,12,24 at r6-r11, 10 h hold time
[19] = Run #C, 2° C., pH 7.7, Oxygen 2 mg/L, hours 1,4,8,10,12,24 at r6-r11, 12 h hold time
[20] = Run #C, 2° C., pH 7.7, Oxygen 2 mg/L, hours 1,4,8,10,12,24 at r6-r11, 24 h hold time
[21] = Run #C, 2° C., pH 7.7, Oxygen 2 mg/L, hours 1,4,8,10,12,24 at r17-r22, 1 h hold time
[22] = Run #C, 2° C., pH 7.7, Oxygen 2 mg/L, hours 1,4,8,10,12,24 at r17-r22, 4 h hold time
[23] = Run #C, 2° C., pH 7.7, Oxygen 2 mg/L, hours 1,4,8,10,12,24 at r17-r22, 8 h hold time
[24] = Run #C, 2° C., pH 7.7, Oxygen 2 mg/L, hours 1,4,8,10,12,24 at r17-r22, 10 h hold time
[25] = Run #C, 2° C., pH 7.7, Oxygen 2 mg/L, hours 1,4,8,10,12,24 at r17-r22, 24 h hold time
[26] = Run #D, 8° C., pH 7.7, Oxygen 2.0 mg/L, hours 1,4,8,10,12,24 at r6-r11, after 1 hours

CN(C)c1cc(NC(=O)CNC(C)(C)C)c(O)c2c1C[C@H]1C[C@H]3[C@H](N(C)C)C(O)=C(C(N)=O)C(=O)[C@@]3(O)C(O)=C1C2=O [Tigecycline]
RRT 0.58 [1]: 0.06% and 0.07% | RRT 0.64 9-Amino [1]: BRL (BRL means below reporting limit (meaning less than 0.05% of tigecycline peak)) | RRT 0.74 Epimer [1]: 0.26% and 0.23% and 0.18% and 0.20% and 0.19% and 0.25% | Strength [1]: 19.901 mg/mL and 19.504 mg/mL and 19.639 mg/mL and 19.610 mg/mL and 19.473 mg/mL and 19.806 mg/mL | RRT 1.12 [2]: BRL (BRL means below reporting limit (meaning less than 0.05% of tigecycline peak)) | RRT 1.45 [2]: 0.06% and 0.08% and 0.07% and 0.09% | RRT 1.58 [2]: BRL (BRL means below reporting limit (meaning less than 0.05% of tigecycline peak)) | RRT 1.64 Mino [2]: 0.10% and 0.11% | RRT 1.85 MW = 597 [2]: 0.06% and 0.08% and 0.07% and 0.14% | Total [2]: 0.47% and 0.76% and 0.86% and 1.26% and 1.40% and 1.86% | RRT 0.55 MW = 583 [3]: 0.11% | Strength [3]: 19.149 mg/mL | RRT 0.55 MW = 583 [4]: 0.20% | Strength [4]: 19.046 mg/mL | RRT 0.55 MW = 583 [5]: 0.27% | Strength [5]: 18.795 mg/mL | RRT 0.55 MW = 583 [6]: 0.32% | Strength [6]: 19.144 mg/mL | RRT 0.55 MW = 583 [7]: 0.29% | Strength [7]: 18.668 mg/mL | RRT 0.55 MW = 583 [8]: 0.42% | Strength [8]: 17.784 mg/mL | RRT 0.74 Epimer [9]: 0.20% | RRT 1.64 Mino [9]: 0.10% | RRT 1.67 MW = 556 [9]: 0.14% | RRT 1.85 MW = 597 [9]: 0.08% | Total [9]: 0.75% | RRT 0.74 Epimer [10]: 0.19% | RRT 1.64 Mino [10]: 0.05% | RRT 1.67 MW = 556 [10]: 0.25% | RRT 1.85 MW = 597 [10]: 0.07% | Total [10]: 1.12% | RRT 0.74 Epimer [11]: 0.23% | RRT 1.64 Mino [11]: 0.07% | RRT 1.67 MW = 556 [11]: 0.35% | Total [11]: 1.85% | RRT 0.74 Epimer [12]: 0.22% | RRT 1.64 Mino [12]: 0.11% | RRT 1.67 MW = 556 [12]: 0.29% | RRT 1.85 MW = 597 [12]: 0.09% | Total [12]: 2.38% | RRT 0.74 Epimer [13]: 0.24% | RRT 1.64 Mino [13]: 0.09% | RRT 1.67 MW = 556 [13]: 0.23% | Total [13]: 2.61% | RRT 1.67 MW = 556 [14]: 0.50% | RRT 1.85 MW = 597 [14]: 0.11% | Total [14]: 5.36% | RRT 0.12 MW = 633 [15]: BRL (BRL means below reporting limit (meaning less than 0.05% of tigecycline peak)) | RRT 0.64 9-Amino [15]: BRL (BRL means below reporting limit (meaning less than 0.05% of tigecycline peak)) | RRT 0.58 [16]: 0.08% | RRT 0.74 Epimer [16]: 0.20% | Strength [16]: 19.339 mg/mL | RRT 0.58 [17]: 0.06% | RRT 0.74 Epimer [17]: 0.19% | Strength [17]: 19.246 mg/mL | Strength (Run #C, 2° C., pH 7.7, Oxygen 2 mg/L, hours 1,4,8,10,12,24 at r6-r11, 8 h hold time): 19.031 mg/mL | RRT 0.74 Epimer [18]: 0.27% | Strength [18]: 19.415 mg/mL | RRT 0.58 [19]: 0.07% | RRT 0.74 Epimer [19]: 0.30% | Strength [19]: 19.048 mg/mL | RRT 0.58 [20]: 0.05% | RRT 0.74 Epimer [20]: 0.21% | Strength [20]: 19.226 mg/mL | RRT 1.12 (Run #C, 2° C., pH 7.7, Oxygen 2 mg/L, hours 1,4,8,10,12,24 at r17-r22): BRL (BRL means below reporting limit (meaning less than 0.05% of tigecycline peak)) | RRT 1.45 [21]: 0.07% | RRT 1.64 Mino [21]: 0.10% | RRT 1.85 MW = 597 [21]: 0.06% | Total [21]: 0.59% | RRT 1.64 Mino [22]: 0.09% | Total [22]: 0.60% | RRT 1.45 [23]: 0.13% | RRT 1.64 Mino [23]: 0.11% | RRT 1.85 MW = 597 [23]: 0.07% | Total [23]: 0.87% | RRT 1.85 MW = 597 [24]: 0.08% | Total [24]: 1.20% | Total (Run #C, 2° C., pH 7.7, Oxygen 2 mg/L, hours 1,4,8,10,12,24 at r17-r22, 12 h hold time): 1.38% | RRT 1.45 [25]: 0.06% | Total [25]: 1.52% | RRT 0.64 9-Amino (Run #D, 8° C., pH 7.7, Oxygen 2.0 mg/L, hours 1,4,8,10,12,24 at r6-r11): BRL (BRL means below reporting limit (meaning less than 0.05% of tigecycline peak)) | RRT 0.55 MW = 583 [26]: 0.08% | RRT 0.74 Epimer [26]: 0.19%
